Data on 23 molecules can be found in PubChem BioAssay AID330 (DTP/NCI, 2004).

The assay has as its system P388 leukemia ip, CD2F1 mice, survival T/C. Nature of the assay: NCI In Vivo Anticancer Drug Screen. Data for tumor model P388 Leukemia (intraperitoneal) in CD2F1 (CDF1) mice. The following applies: endpoint: median survival time, higher = longer survival. In a few lines:
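Mice carrying the transplanted tumor received test compound or vehicle. Survival was recorded in each group, and the value is the treated-group measurement divided by that of the vehicle-treated control group.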

The mark [1] stands for this setting: dose: 12.5 mg/kg/injection, schedule: Q01DX009 (ip), vehicle: distilled water + Tween-80.
Where [2] appears, read: dose: 25.0 mg/kg/injection, schedule: Q01DX009 (ip), vehicle: distilled water + Tween-80.
[3] abbreviates: dose: 50.0 mg/kg/injection, schedule: Q01DX009 (ip), vehicle: distilled water + Tween-80.
[4] abbreviates: dose: 100.0 mg/kg/injection, schedule: Q01DX009 (ip), vehicle: distilled water + Tween-80.
Where [5] appears, read: dose: 200.0 mg/kg/injection, schedule: Q01DX009 (ip), vehicle: distilled water + Tween-80.
Where [6] appears, read: dose: 50.0 mg/kg/injection, schedule: Q01DX009 (ip), vehicle: Klucel (hydroxypropylcellulose) (HPC).
The mark [7] stands for this setting: dose: 100.0 mg/kg/injection, schedule: Q01DX009 (ip), vehicle: Klucel (hydroxypropylcellulose) (HPC).
The mark [8] stands for this setting: dose: 50.0 mg/kg/injection, schedule: Q01DX005 (ip), vehicle: saline with Tween-80.
[9] abbreviates: dose: 100.0 mg/kg/injection, schedule: Q01DX005 (ip), vehicle: saline with Tween-80.
[10] abbreviates: dose: 200.0 mg/kg/injection, schedule: Q01DX005 (ip), vehicle: saline with Tween-80.
[11] abbreviates: dose: 50.0 mg/kg/injection, schedule: Q01DX009 (ip), vehicle: saline with Tween-80.
The mark [12] stands for this setting: dose: 100.0 mg/kg/injection, schedule: Q01DX009 (ip), vehicle: saline with Tween-80.
[13] abbreviates: dose: 25.0 mg/kg/injection, schedule: Q01DX005 (ip), vehicle: Klucel (hydroxypropylcellulose) (HPC).
[14] abbreviates: dose: 50.0 mg/kg/injection, schedule: Q01DX005 (ip), vehicle: Klucel (hydroxypropylcellulose) (HPC).
The mark [15] stands for this setting: dose: 100.0 mg/kg/injection, schedule: Q01DX005 (ip), vehicle: Klucel (hydroxypropylcellulose) (HPC).
[16] abbreviates: dose: 200.0 mg/kg/injection, schedule: Q01DX005 (ip), vehicle: Klucel (hydroxypropylcellulose) (HPC).

Several values for one entry are separate records, joined by “and”; a condition that tells them apart may be missing. Equal entries are not always repeated. Toxic doses and inconclusive results are not listed.

Regarding `CC(=O)c1ccc(NN=NCCCl)cc1`, the T/C runs as follows: under setting [1], 98 % of control; under setting [2], 100 % of control; under setting [3], 104 % of control; under setting [4], 104 % of control; under setting [5], 107 % of control.
`Cc1cc(C)c2c(Nc3ccc4c(c3)OCO4)c(C(=O)O)cnc2c1`: the T/C by setting is: (dose: 60.0 mg/kg/injection, schedule: Q04DX002 (ip), vehicle: Klucel + Tween-80) 95 % of control; (dose: 120.0 mg/kg/injection, schedule: Q04DX002 (ip), vehicle: Klucel + Tween-80) 92 % of control; (dose: 240.0 mg/kg/injection, schedule: Q04DX002 (ip), vehicle: Klucel + Tween-80) 101 % of control.
As to `CC(=O)c1ccc2ccccc2c1OC(=O)c1cccnc1`, the T/C was 100 % of control (dose: 6.25 mg/kg/injection, schedule: Q01DX009 (ip), vehicle: distilled water + Tween-80); 104 % of control under setting [1]; 111 % of control and 94 % of control under setting [2]; 107 % of control and 111 % of control under setting [3]; 117 % of control and 119 % of control under setting [4]; 121 % of control under setting [5].
On to `NC(=S)N/N=C/C=N/NC(N)=S`, for which the T/C is 92 % of control (dose: 50.0 mg/kg/injection, schedule: Q01DX009 (ip), vehicle: saline); 90 % of control (dose: 100.0 mg/kg/injection, schedule: Q01DX009 (ip), vehicle: saline); 101 % of control (dose: 200.0 mg/kg/injection, schedule: Q01DX009 (ip), vehicle: saline).
`Cc1coc2c3c(ccc12)OC(C)(C)C=C3`: the T/C (dose: 100.0 mg/kg/injection, schedule: Q01DX001 (ip), vehicle: saline with Tween-80) is 102 % of control and the T/C (dose: 200.0 mg/kg/injection, schedule: Q01DX001 (ip), vehicle: saline with Tween-80) is 104 % of control.
For the molecule `O=C(Nc1ccc(N=C=S)cc1Cl)c1cc(Cl)cc(Cl)c1O`, the T/C was 119 % of control under setting [6] and 122 % of control under setting [7].
With `O=C(N/N=C/c1ccc(O)cc1O)c1cccnc1`, the T/C runs as follows: (dose: 12.5 mg/kg/injection, schedule: Q01DX009 (ip), vehicle: olive oil, sesame oil, peanut oil) 106 % of control; (dose: 25.0 mg/kg/injection, schedule: Q01DX009 (ip), vehicle: olive oil, sesame oil, peanut oil) 105 % of control; (dose: 50.0 mg/kg/injection, schedule: Q01DX009 (ip), vehicle: olive oil, sesame oil, peanut oil) 121 % of control; (dose: 50.0 mg/kg/injection, schedule: Q01DX009 (oral), vehicle: saline with Tween-80) 108 % of control; (dose: 100.0 mg/kg/injection, schedule: Q01DX009 (ip), vehicle: olive oil, sesame oil, peanut oil) 102 % of control; (dose: 100.0 mg/kg/injection, schedule: Q01DX009 (oral), vehicle: saline with Tween-80) 108 % of control. In addition, the T/C was 101 % of control (dose: 200.0 mg/kg/injection, schedule: Q01DX009 (oral), vehicle: saline with Tween-80) and 105 % of control (dose: 400.0 mg/kg/injection, schedule: Q01DX009 (oral), vehicle: saline with Tween-80).
In the case of `O=C(O)c1ccccc1SSC(=S)N1CCOCC1`, the T/C under setting [6] is 93 % of control; the T/C under setting [7] was 108 % of control; the T/C (dose: 200.0 mg/kg/injection, schedule: Q01DX009 (ip), vehicle: Klucel (hydroxypropylcellulose) (HPC)) was 118 % of control.
With `Cc1ccc(C(=O)CC(O)(C(F)(F)F)C(F)(F)F)cc1`, the T/C by setting is: (dose: 100.0 mg/kg/injection, schedule: Q04DX003 (ip), vehicle: other) 100 % of control; (dose: 200.0 mg/kg/injection, schedule: Q04DX003 (ip), vehicle: other) 118 % of control; (dose: 400.0 mg/kg/injection, schedule: Q04DX003 (ip), vehicle: other) 122 % of control.
Turning to `CCN(SSN(CC)S(=O)(=O)c1ccc(C)cc1)S(=O)(=O)c1ccc(C)cc1`, the T/C reads like this: under setting [8], 106 % of control; under setting [9], 107 % of control; under setting [10], 110 % of control.
For the molecule `C=C(C#N)C(NC(C)(C)C)c1ccccc1` (stereo not drawn), the T/C was 96 % of control (dose: 12.5 mg/kg/injection, schedule: Q01DX001 (ip), vehicle: saline); 100 % of control (dose: 25.0 mg/kg/injection, schedule: Q01DX001 (ip), vehicle: saline); 115 % of control (dose: 50.0 mg/kg/injection, schedule: Q01DX001 (ip), vehicle: saline).
Regarding `CCN(CC)CCNC1=CC(=S)NC(C)(C)C1`, the T/C is, setting by setting: (dose: 25.0 mg/kg/injection, schedule: Q01DX009 (ip), vehicle: saline with Tween-80) 103 % of control; under setting [11], 94 % of control; under setting [12], 106 % of control; (dose: 200.0 mg/kg/injection, schedule: Q01DX009 (ip), vehicle: saline with Tween-80) 94 % of control.
For `CN(Cc1ccccc1)C1=CC(=O)C(N(C)Cc2ccccc2)=CC1=O`, the T/C was 105 % of control under setting [8], 115 % of control under setting [9] and 101 % of control under setting [10].
For the molecule `O=C1C2CCCC1C(c1ccccc1)NC2c1ccccc1` (stereo not drawn), the T/C is, setting by setting: under setting [13], 104 % of control; under setting [14], 102 % of control; under setting [15], 96 % of control; under setting [16], 98 % of control.
Consider `S=c1[nH]ccn1-c1ccccc1Cl`, for which the T/C (dose: 60.0 mg/kg/injection, schedule: Q01DX005 (ip), vehicle: Klucel (hydroxypropylcellulose) (HPC)) was 101 % of control; the T/C (dose: 120.0 mg/kg/injection, schedule: Q01DX005 (ip), vehicle: Klucel (hydroxypropylcellulose) (HPC)) is 106 % of control; the T/C (dose: 240.0 mg/kg/injection, schedule: Q01DX005 (ip), vehicle: Klucel (hydroxypropylcellulose) (HPC)) was 109 % of control.
Take `CNC(=O)OCc1c(COC(=O)NC)c(-c2ccc(Cl)cc2Cl)n2c1CCC2`: under setting [4], the T/C was 164 % of control.
As for `CCCCC(CC)COC(C)=O` (stereo not drawn), the T/C is 104 % of control (dose: 100.0 mg/kg/injection, schedule: Q04DX003 (ip), vehicle: saline with Tween-80); 109 % of control (dose: 200.0 mg/kg/injection, schedule: Q04DX003 (ip), vehicle: saline with Tween-80); 86 % of control (dose: 400.0 mg/kg/injection, schedule: Q04DX003 (ip), vehicle: saline with Tween-80).
Take `Oc1ccc2c3c1OC1C(=NN=C4CCC5(O)C6Cc7ccc(O)c8c7C5(CCN6CC5CC5)C4O8)CCC4(O)C(C2)N(CC2CC2)CCC314` (stereo not drawn): the T/C under setting [8] was 91 % of control, the T/C under setting [9] was 98 % of control and the T/C under setting [10] is 99 % of control.
Take `CCCC[P+](c1ccccc1)(c1ccccc1)c1ccccc1`: the T/C was 118 % of control (dose: 5.0 mg/kg/injection, schedule: Q01DX009 (ip), vehicle: saline sonified); 122 % of control (dose: 10.0 mg/kg/injection, schedule: Q01DX009 (ip), vehicle: saline sonified); 118 % of control (dose: 13.2 mg/kg/injection, schedule: Q01DX009 (ip), vehicle: saline sonified); 118 % of control (dose: 20.0 mg/kg/injection, schedule: Q01DX009 (ip), vehicle: saline sonified); 90 % of control (dose: 30.0 mg/kg/injection, schedule: Q01DX009 (ip), vehicle: saline sonified).
With `C[N+](C)(C[Si](C)(C)C)C1CCCCCCCCCCC1`, under “dose: 15.0 mg/kg/injection, schedule: Q01DX005 (ip), vehicle: saline with Tween-80”, the T/C is 102 % of control.
For the molecule `Cc1ccc(C2=C3CCCCC3c3cc(C)ccc32)cc1` (stereo not drawn), the T/C is 91 % of control under setting [13], 97 % of control under setting [14], 90 % of control under setting [15] and 90 % of control under setting [16].
For `NNC(=O)c1ccccc1O`, the T/C runs as follows: under setting [11], 100 % of control; under setting [12], 100 % of control.
For the molecule `[O-]/[N+](=N/O)C(c1ccccc1)c1ccccc1`, the T/C (dose: 3.0 mg/kg/injection, schedule: Q01DX005 (ip), vehicle: Klucel + Tween-80) is 104 % of control; the T/C (dose: 6.0 mg/kg/injection, schedule: Q01DX005 (ip), vehicle: Klucel + Tween-80) was 98 % of control; the T/C (dose: 12.0 mg/kg/injection, schedule: Q01DX005 (ip), vehicle: Klucel + Tween-80) is 100 % of control; the T/C (dose: 24.0 mg/kg/injection, schedule: Q01DX005 (ip), vehicle: Klucel + Tween-80) was 97 % of control.
